This test concerns the target Glycogen synthase kinase-3 beta (Homo sapiens, UniProt P49841). The test can be described thus: Biochemical Assay: The ingredients required for this purpose are mixed in a black 384-well microtiter plate with transparent base (from Greiner, catalog number 781092). The requirements in this connection for each well of the 384-well microtiter plate are 5 nM GSK3β (from Upstate, catalog number xy), 40 μM GSK3β substrate GSM (sequence H-RRRPASVPPSPSLSRHS-(pS)-HQRR, from Upstate, catalog number 2-533), 30 μM nicotinamide adenine dinucleotide NADH (Roche Diagnostics, catalog number 10107735), 50 μM adenosine triphosphate ATP (from Sigma, catalog number A7966) and 2 mM phosphoenolpyruvate (from Roche, catalog number 128112). The required reaction buffer in which the biochemical reaction takes place consists of 50 mM Trizma hydrochloride Tris-HCl pH: 7.5 (from Sigma, catalog number T3253), 5 mM magnesium chloride MgCl2 (from Sigma, catalog number M8266), 0.2 mM DL-dithiothreitol DTT (from Sigma, catalog number D9779), 2 mM ethylenediaminetetraacetic acid EDTA (from Sigma, catalog number E6758), 0.01% Triton X-100 (from Sigma, catalog number T8787) and 0.05% bovine serum albumin BSA (from Sigma, catalog number B4287). Active substances are dissolved in dimethyl sulfoxide DMSO (from Sigma, catalog number D8418) in a concentration of 10 mM. […].

Data on one molecule can be found in ChEMBL document CHEMBL3638705, “Imidazo-, pyrazolopyrazines and imidazotriazines and their use” (2013).

SMILES strings stand for the structures.

In general, IC50 refers to the point on the concentration scale where inhibition reaches its midpoint.

Chain of Glycogen synthase kinase-3 beta (P49841 whole entry): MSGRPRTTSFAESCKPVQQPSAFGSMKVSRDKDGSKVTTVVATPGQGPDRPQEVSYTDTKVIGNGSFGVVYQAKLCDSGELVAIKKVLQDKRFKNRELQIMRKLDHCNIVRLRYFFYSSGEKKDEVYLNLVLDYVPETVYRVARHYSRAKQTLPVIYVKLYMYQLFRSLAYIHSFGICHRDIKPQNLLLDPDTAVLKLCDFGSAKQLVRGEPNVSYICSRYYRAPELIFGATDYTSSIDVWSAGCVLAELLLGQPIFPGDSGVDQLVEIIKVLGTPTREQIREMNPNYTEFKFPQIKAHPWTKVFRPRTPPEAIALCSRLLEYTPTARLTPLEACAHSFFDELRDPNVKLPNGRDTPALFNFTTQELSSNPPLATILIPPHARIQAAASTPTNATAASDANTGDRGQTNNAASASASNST

As to `N#Cc1sc(NCCNc2nc(-c3ccc(Cl)cc3Cl)cn3ccnc23)nc1N`, the half-inhibitory concentration (IC50) amounted to 16 nM.
